Measured values as given in ChEMBL document CHEMBL4043292, “Discovery and Optimization of Phosphopantetheine Adenylyltransferase Inhibitors with Gram-Negative Antibacterial Activity” (J Med Chem, 2018).
≈ marks a conversion by molar mass, not a printed value.

What was measured:
physchem [1] = conditions: buffer, pH 7.4
Description: Lipophilicity, log D of the compound at pH 7.4

Escherichia coli [2] = assay: microbe, parasite or virus in culture; conditions: JW5503-1, 20 h
Description: Antibacterial activity against tolC deficient Escherichia coli JW5503-1 after 20 hrs by broth microdilution method

Escherichia coli [3] = assay: microbe, parasite or virus in culture; conditions: BW25113, 20 h
Description: Antibacterial activity against Escherichia coli BW25113 after 20 hrs by broth microdilution method

[4] = Inhibition of PPAT in tolC deficient Escherichia coli JW5503-1 assessed as reduction in level of CoA-SH metabolite by mass spectrometric method
[5] = Inhibition of PPAT in Escherichia coli BW25113 assessed as reduction in level of CoA-SH metabolite by mass spectrometric method
physchem [6] = conditions: PBS
Description: Solubility of the compound in PBS

Structure (SMILES) | logD (physchem [1]) | MIC (Escherichia coli [2]) [µg/mL] | MIC (Escherichia coli [3]) [µg/mL] | IC50 [4] [nM] | IC50 [5] [nM] | solubility (physchem [6]) [µg/mL]
COC(=O)N1CCC(O)(Cc2cccc([C@@H](CC#N)Nc3nc4nc(C)ccc4[nH]3)c2)CC1 | 2.1 | 2 (≈ 4.46 µM) | > 128 | – | – | –
Cc1cc(=O)n2nc(N[C@H](C)c3cccc(Cl)c3)nc2[nH]1 | – | > 128 | – | – | – | –
Cc1cc(NC[C@@H](N)c2cccc(F)c2)n2nc(N[C@H](CC#N)c3cccc(Cl)c3)nc2n1 | 3.7 | 0.25 (≈ 0.538 µM) | 64 (≈ 138 µM) | – | – | –
COC(=O)N1CCC(CNCCO)(Cc2cccc([C@@H](CC#N)Nc3nc4nc(C)ccc4[nH]3)c2)CC1 | – | 32 (≈ 63.3 µM) | > 128 | – | – | –
COC(=O)N1CCC(Cc2cccc([C@@H](CC#N)Nc3nc4nc(C)ccc4[nH]3)c2)(C(=O)O)CC1 | 0.02 | 16 (≈ 33.6 µM) | > 128 | – | – | –
Cc1cc(NC[C@@H](N)c2ccccn2)n2nc(N[C@H](CC#N)c3cccc(Cl)c3)nc2n1 | 1.9 | 2 (≈ 4.46 µM) | > 128 | – | – | –
Cc1cc(NC[C@@H](N)c2ccsc2)n2nc(N[C@H](CC#N)c3cccc(Cl)c3)nc2n1 | 3 | 1 (≈ 2.21 µM) | 64 (≈ 141 µM) | – | – | –
Cc1cc(NC[C@@H](N)c2ccc(F)cc2)n2nc(N[C@H](CC#N)c3cccc(Cl)c3)nc2n1 | – | 0.5 (≈ 1.08 µM) | 64 (≈ 138 µM) | – | – | –
COC(=O)c1ccc(Oc2cccc([C@@H](CC#N)Nc3nc4[nH]c(C)cc(=O)n4n3)c2)cc1 | 2 | 2 (≈ 4.5 µM) | – | – | – | –
Cc1cc(Nc2ccc(C)c(Cl)c2)n2nc(Cc3ccccc3)nc2n1 | > 5 | – | – | – | – | –
Cc1cc(NC[C@@H](N)c2ccncc2)n2nc(N[C@H](CC#N)c3cccc(Cl)c3)nc2n1 | 2.2 | 4 (≈ 8.93 µM) | > 128 | – | – | –
COC(=O)N1CC[C@H](Oc2cccc([C@@H](CC#N)Nc3nc4nc(C)ccc4[nH]3)c2)C1 | 2.7 | 4 (≈ 9.51 µM) | > 128 | – | – | –
COC(=O)N1CCC(CCCO)(Cc2cccc([C@@H](CC#N)Nc3nc4nc(C)ccc4[nH]3)c2)CC1 | – | 0.25 (≈ 0.51 µM) | > 128 | – | – | –
Cc1cc(NC[C@@H](N)c2c(C)noc2C)n2nc(N[C@H](CC#N)c3cccc(Cl)c3)nc2n1 | – | 1 (≈ 2.15 µM) | > 128 | – | – | –
Cc1cc(NC[C@@H](N)c2cccnc2)n2nc(N[C@H](CC#N)c3cccc(Cl)c3)nc2n1 | 2.3 | 4 (≈ 8.93 µM) | > 128 | – | – | –
COC(=O)N1CC[C@@H](Oc2cccc([C@@H](CC#N)Nc3nc4nc(C)ccc4[nH]3)c2)C1 | 2.8 | > 128 | > 128 | – | – | –
Cc1cc(NC[C@@H](N)c2ccccc2F)n2nc(N[C@H](CC#N)c3cccc(Cl)c3)nc2n1 | 3.2 | 0.125 (≈ 0.269 µM) | 64 (≈ 138 µM) | – | – | –
Cc1cc(N2CC(N(C)C)C2)n2nc(N[C@H](CC#N)c3cccc(Cl)c3)nc2n1 | 2.8 | 4 (≈ 9.73 µM) | > 128 | – | – | –
Cc1cc(=O)n2nc(N[C@H](CC#N)c3cccc(Cl)c3)nc2[nH]1 | – | 16 (≈ 48.7 µM) | > 128 | 590 | > 200000 | –
Cc1cc(NC[C@@H](N)C2CC2)n2nc(N[C@H](CC#N)c3cccc(Cl)c3)nc2n1 | 1.3 | 8 (≈ 19.5 µM) | > 128 | – | – | –
Cc1cc(NC[C@@H](N)c2cccs2)n2nc(N[C@H](CC#N)c3cccc(Cl)c3)nc2n1 | 3.3 | 0.25 (≈ 0.552 µM) | 64 (≈ 141 µM) | – | – | –
CC(=O)N1CCc2cc(Nc3cc(C)nc4nc(N[C@H](C)c5cccc(Cl)c5)nn34)ccc21 | 4.6 | 0.125 (≈ 0.271 µM) | > 128 | – | – | –
Cc1cc(NC[C@@H](O)c2ccccc2)n2nc(N[C@H](CC#N)c3cccc(Cl)c3)nc2n1 | 3.6 | 0.25 (≈ 0.558 µM) | > 128 | – | – | –
COC(=O)N1CC[C@H](Cc2cccc([C@@H](CC#N)Nc3nc4nc(C)ccc4[nH]3)c2)C1 | – | 0.125 (≈ 0.299 µM) | 64 (≈ 153 µM) | – | – | –
Cc1cc(N[C@H]2C[C@@H]2c2ccccc2)n2nc(N[C@H](C)c3cccc(Cl)c3)nc2n1 | 4.9 | 2 (≈ 4.77 µM) | > 128 | – | – | –
COC(=O)N1CCC(Oc2cccc([C@@H](CC#N)Nc3nc4[nH]c(C)cc(=O)n4n3)c2)CC1 | 0.64 | 8 (≈ 17.7 µM) | > 128 | 450 | > 200000 | –
CC(=O)N1CCc2cc(Nc3cc(C)nc4nc(N[C@H](CC#N)c5cccc(Cl)c5)nn34)ccc21 | 3.9 | 0.06 (≈ 0.123 µM) | > 128 | < 6 | 2400 | < 0.6
COC(=O)N1CCC(Sc2cccc([C@@H](CC#N)Nc3nc4nc(C)ccc4[nH]3)c2)CC1 | 3.7 | 0.06 (≈ 0.133 µM) | 64 (≈ 142 µM) | – | – | –
CO/N=C/C1(Cc2cccc([C@@H](CC#N)Nc3nc4nc(C)ccc4[nH]3)c2)CCN(C(=O)OC)CC1 | 3.5 | 0.25 (≈ 0.511 µM) | > 128 | – | – | –
Cc1cc(Nc2ccc3nc(C)sc3c2)n2nc(N[C@H](C)c3cccc(Cl)c3)nc2n1 | 4.4 | 1 (≈ 2.22 µM) | > 128 | – | – | –

Now from value to molecule:

logD (physchem [1]) | MIC (Escherichia coli [2]) [µg/mL] | MIC (Escherichia coli [3]) [µg/mL] | IC50 [4] [nM] | IC50 [5] [nM] | solubility (physchem [6]) [µg/mL] | Structure (SMILES)
– | 64 (≈ 164 µM) | – | – | – | – | COc1ccc(Oc2cccc([C@@H](C)Nc3nc4[nH]c(C)cc(=O)n4n3)c2)cc1
3.2 | 8 (≈ 17.9 µM) | > 128 | – | – | – | Cc1cc(NC[C@H](N)c2ccccc2)n2nc(N[C@H](CC#N)c3cccc(Cl)c3)nc2n1
– | 1 (≈ 2.16 µM) | > 128 | – | – | – | COC(=O)N1CCC(CO)(Cc2cccc([C@@H](CC#N)Nc3nc4nc(C)ccc4[nH]3)c2)CC1
2.9 | 2 (≈ 4.71 µM) | > 128 | – | – | – | Cc1cc(NCCc2c(C)n[nH]c2C)n2nc(N[C@H](C)c3cccc(Cl)c3)nc2n1
1.4 | – | – | – | – | – | COC(=O)N1CCN(Cc2cccc([C@@H](CC#N)Nc3nc4nc(C)ccc4[nH]3)c2)C(=O)C1
– | > 128 | > 128 | – | – | – | Cc1cc(N2CC(N(C)C)C2)n2nc(N[C@H](C)c3cccc(Cl)c3)nc2n1
3.3 | 32 (≈ 82.9 µM) | > 128 | – | – | – | Cc1cc(N2CCN(C)CC2)n2nc(N[C@H](C)c3cccc(Cl)c3)nc2n1
3.8 | 0.5 (≈ 1.11 µM) | > 128 | 12 | 74000 | 23.8 (≈ 52.9 µM) | Cc1cc(NCCc2c(C)n[nH]c2C)n2nc(N[C@H](CC#N)c3cccc(Cl)c3)nc2n1
3.1 | 1 (≈ 2.39 µM) | > 128 | – | – | – | COC(=O)N1CC[C@@H](Cc2cccc([C@@H](CC#N)Nc3nc4nc(C)ccc4[nH]3)c2)C1
1.9 | 2 (≈ 4.14 µM) | > 128 | – | – | – | COC(=O)N1CCC(S(=O)(=O)c2cccc([C@@H](CC#N)Nc3nc4nc(C)ccc4[nH]3)c2)CC1
– | 0.5 (≈ 0.991 µM) | > 128 | – | – | – | COC(=O)N1CCC(CCC(=O)O)(Cc2cccc([C@@H](CC#N)Nc3nc4nc(C)ccc4[nH]3)c2)CC1
> 4.8 | 4 (≈ 9.83 µM) | > 128 | – | – | – | Cc1cc(NCCc2ccccc2)n2nc(N[C@H](C)c3cccc(Cl)c3)nc2n1
– | 4 (≈ 8.87 µM) | > 128 | – | – | – | Cc1cc(NC[C@@H](N)c2nccn2C)n2nc(N[C@H](CC#N)c3cccc(Cl)c3)nc2n1
– | 0.5 (≈ 1.03 µM) | > 128 | – | – | – | COC(=O)N1CCC(CCC#N)(Cc2cccc([C@@H](CC#N)Nc3nc4nc(C)ccc4[nH]3)c2)CC1
3.4 | 0.25 (≈ 0.559 µM) | 32 (≈ 71.6 µM) | – | – | – | Cc1cc(NC[C@@H](N)c2ccccc2)n2nc(N[C@H](CC#N)c3cccc(Cl)c3)nc2n1
2 | 32 (≈ 66.2 µM) | > 128 | – | – | – | COC(=O)N1CCN(S(=O)(=O)c2cccc([C@@H](CC#N)Nc3nc4nc(C)ccc4[nH]3)c2)CC1
